pIC50: −log10 of the molar value. In brackets after ≈: the same amount, converted by molar mass.
Experiments:
[1] = target: T1, 3-oxoacyl-[acyl-carrier-protein] synthase 2 (Mycobacterium tuberculosis, UniProt P9WQD7); experiment: Inhibitory activity against KasB from Mycobacterium tuberculosis H37Rv
T1 sequence (P9WQD7 whole entry): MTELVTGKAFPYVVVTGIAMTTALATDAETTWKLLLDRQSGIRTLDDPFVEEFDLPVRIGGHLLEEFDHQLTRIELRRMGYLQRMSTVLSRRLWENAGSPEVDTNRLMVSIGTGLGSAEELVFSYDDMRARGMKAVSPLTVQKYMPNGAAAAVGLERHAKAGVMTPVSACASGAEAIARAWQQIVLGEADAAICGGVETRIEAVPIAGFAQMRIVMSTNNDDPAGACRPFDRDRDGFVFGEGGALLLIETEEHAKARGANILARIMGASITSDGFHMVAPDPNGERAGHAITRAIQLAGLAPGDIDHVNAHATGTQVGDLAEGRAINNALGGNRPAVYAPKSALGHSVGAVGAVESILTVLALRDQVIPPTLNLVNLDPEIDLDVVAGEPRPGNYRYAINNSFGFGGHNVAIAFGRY

Escherichia coli = experiment: Inhibitory activity against Escherichia coli ANSI; assay type: functional
[2] = system: Mycobacterium tuberculosis; experiment: Inhibitory activity against Mycobacterium tuberculosis H37Rv; assay type: functional
[3] = target: T2, 3-oxoacyl-[acyl-carrier-protein] synthase 1 (Escherichia coli K-12, UniProt P0A953); experiment: Inhibitory activity against FabB from Escherichia coli ANSI
T2 sequence (P0A953 whole entry): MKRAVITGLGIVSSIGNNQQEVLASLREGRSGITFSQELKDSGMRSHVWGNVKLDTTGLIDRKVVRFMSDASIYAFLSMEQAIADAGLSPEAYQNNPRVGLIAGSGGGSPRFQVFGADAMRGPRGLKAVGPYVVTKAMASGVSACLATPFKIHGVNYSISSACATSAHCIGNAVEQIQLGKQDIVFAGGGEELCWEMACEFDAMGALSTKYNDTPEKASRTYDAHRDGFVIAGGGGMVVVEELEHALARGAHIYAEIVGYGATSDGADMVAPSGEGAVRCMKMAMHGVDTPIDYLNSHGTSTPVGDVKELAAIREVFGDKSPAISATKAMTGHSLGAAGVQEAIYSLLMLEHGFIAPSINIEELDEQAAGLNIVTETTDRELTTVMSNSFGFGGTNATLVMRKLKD

[4] = target: T3, Mycobacterial beta-ketoacyl-[acyl-carrier-protein] synthase III (Mycobacterium tuberculosis, UniProt P9WNG3); experiment: Inhibitory activity against FabH from Mycobacterium tuberculosis H37Rv
T3 sequence (P9WNG3 whole entry): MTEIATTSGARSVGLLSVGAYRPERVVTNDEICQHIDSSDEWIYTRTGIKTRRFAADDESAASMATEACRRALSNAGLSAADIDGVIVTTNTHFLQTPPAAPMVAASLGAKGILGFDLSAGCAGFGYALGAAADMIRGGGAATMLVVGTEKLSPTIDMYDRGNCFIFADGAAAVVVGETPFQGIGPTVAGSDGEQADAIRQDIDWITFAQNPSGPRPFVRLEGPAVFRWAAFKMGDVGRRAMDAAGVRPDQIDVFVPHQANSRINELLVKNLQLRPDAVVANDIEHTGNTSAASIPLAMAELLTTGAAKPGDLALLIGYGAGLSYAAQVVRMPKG

[5] = target: T4, 3-oxoacyl-[acyl-carrier-protein] synthase 3 (Escherichia coli, UniProt C3TDZ2); experiment: Inhibitory activity against FabH from Escherichia coli ANSI
T4 sequence (C3TDZ2 whole entry): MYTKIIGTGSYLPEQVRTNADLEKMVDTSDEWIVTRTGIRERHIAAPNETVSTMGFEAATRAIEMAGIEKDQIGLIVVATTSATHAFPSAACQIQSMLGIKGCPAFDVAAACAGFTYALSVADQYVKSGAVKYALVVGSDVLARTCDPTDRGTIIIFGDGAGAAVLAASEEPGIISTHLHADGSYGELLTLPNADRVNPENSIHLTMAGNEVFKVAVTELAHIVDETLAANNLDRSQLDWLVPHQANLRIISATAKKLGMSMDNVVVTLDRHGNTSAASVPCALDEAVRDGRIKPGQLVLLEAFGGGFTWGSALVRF

wild-type apo-KasA = wild-type apo-KasA (Mycobacterium tuberculosis, UniProt P9WQD9); experiment: Inhibitory activity against KasA from Mycobacterium tuberculosis H37Rv
Chain of wild-type apo-KasA (P9WQD9 whole entry, looked up): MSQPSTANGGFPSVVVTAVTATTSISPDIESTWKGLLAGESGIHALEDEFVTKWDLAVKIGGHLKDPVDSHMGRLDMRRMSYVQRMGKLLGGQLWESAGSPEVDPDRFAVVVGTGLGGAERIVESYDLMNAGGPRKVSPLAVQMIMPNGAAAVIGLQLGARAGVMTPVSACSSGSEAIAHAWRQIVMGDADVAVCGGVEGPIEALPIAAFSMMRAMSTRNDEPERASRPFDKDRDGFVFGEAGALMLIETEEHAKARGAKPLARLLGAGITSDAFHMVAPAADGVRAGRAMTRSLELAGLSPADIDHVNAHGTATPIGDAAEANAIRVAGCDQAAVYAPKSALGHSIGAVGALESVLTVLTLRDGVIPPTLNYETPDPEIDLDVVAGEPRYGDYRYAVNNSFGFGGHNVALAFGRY

SMILES | pIC50 [1] | MIC (Escherichia coli) | MIC [2] | pIC50 [3] | pIC50 [4] | pIC50 [5] | pIC50 (wild-type apo-KasA)
CC1=C(O)C(C)(Cc2cccc(C)c2)SC1=O (configuration not stated) | < 3.00 | > 1000 µM | 1000 µM (≈ 248 µg/mL) | < 3.00 | < 3.00 | < 3.00 | < 3.00
CCCCCCCCCCC(C)C1(C)SC(O)=C(C)C1=O (configuration not stated) | < 3.00 | 35 µM (≈ 10.9 µg/mL) | 500 µM (≈ 156 µg/mL) | < 3.00 | 4.19 | 4.00 | < 3.00
C=CCCC1(C)SC(=O)C(C)=C1O (configuration not stated) | < 3.00 | > 1000 µM | > 1000 µM | < 3.00 | < 3.00 | < 3.00 | < 3.00
COc1ccc(CC2(C)SC(O)=C(C)C2=O)cc1 (configuration not stated) | < 3.00 | > 1000 µM | > 1000 µM | < 3.00 | < 3.00 | < 3.00 | < 3.00
CC1=C(O)SC(C)(C(C)c2ccccc2)C1=O (configuration not stated) | < 3.00 | > 1000 µM | > 1000 µM | < 3.00 | < 3.00 | < 3.00 | < 3.00
CC1=C(O)C(C)(Cc2cccc(Cl)c2)SC1=O (configuration not stated) | < 3.00 | > 1000 µM | 1000 µM (≈ 269 µg/mL) | < 3.00 | < 3.00 | < 3.00 | < 4.00
C=CCCCCCCC1(C)SC(=O)C(C)=C1O (configuration not stated) | < 3.00 | 200 µM (≈ 50.9 µg/mL) | 500 µM (≈ 127 µg/mL) | < 3.00 | < 3.00 | < 3.00 | < 3.00
CC1=C(O)C(C)(Cc2cc(C)ccc2C)SC1=O (configuration not stated) | < 3.00 | > 1000 µM | > 1000 µM | < 3.00 | < 3.00 | < 3.00 | < 3.00
COc1cc(CC2(C)SC(O)=C(C)C2=O)cc(OC)c1 (configuration not stated) | < 3.00 | > 1000 µM | > 1000 µM | < 3.00 | < 3.00 | < 3.00 | < 3.00
CC1=C(O)C(C)(Cc2ccc3ccccc3c2)SC1=O (configuration not stated) | < 3.00 | > 1000 µM | 500 µM (≈ 142 µg/mL) | < 3.00 | < 4.00 | < 3.00 | < 3.00
CC1=C(O)C(C)(CCCc2ccccc2)SC1=O (configuration not stated) | < 3.00 | > 1000 µM | 1000 µM (≈ 262 µg/mL) | < 3.00 | < 3.00 | < 3.00 | < 3.00
CC1=C(O)SC(C)(CCC(C)C)C1=O (configuration not stated) | < 3.00 | > 1000 µM | > 1000 µM | < 3.00 | < 3.00 | < 3.00 | < 3.00
CC1=C(O)C(C)(Cc2ccc(C)cc2)SC1=O (configuration not stated) | < 3.00 | > 1000 µM | > 1000 µM | < 3.00 | < 3.00 | < 3.00 | < 3.00
CC1=C(O)C(C)(CCc2ccccc2)SC1=O (configuration not stated) | < 3.00 | > 1000 µM | 1000 µM (≈ 248 µg/mL) | < 3.00 | < 3.00 | < 3.00 | < 3.00
CCCCCCCCCCCCCCCCCCC1(C)SC(O)=C(C)C1=O (configuration not stated) |  |  | > 1000 µM |  |  |  | 
COc1cccc(CC2(C)SC(O)=C(C)C2=O)c1 (configuration not stated) | < 3.00 | > 1000 µM | > 1000 µM | < 3.00 | < 3.00 | < 3.00 | < 3.00
CCCCCC(C)C1(C)SC(O)=C(C)C1=O (configuration not stated) | < 3.00 | 160 µM (≈ 38.8 µg/mL) | 1000 µM (≈ 242 µg/mL) | < 3.00 | < 3.00 | < 3.00 | < 3.00
CC1=C(O)C(C)(Cc2ccccc2C)SC1=O (configuration not stated) | < 3.00 | > 1000 µM | 1000 µM (≈ 248 µg/mL) | < 3.00 | < 3.00 | < 3.00 | < 3.00
CCCCCCCCC(C)C1(C)SC(O)=C(C)C1=O (configuration not stated) | < 3.00 | 35 µM (≈ 9.96 µg/mL) | 1000 µM (≈ 284 µg/mL) | < 3.00 | 4.12 | < 3.00 | < 3.00
CC/C=C/CC1(C)SC(O)=C(C)C1=O (configuration not stated) | < 3.00 | > 1000 µM | > 1000 µM | < 3.00 | < 3.00 | < 3.00 | < 3.00
CC1=C(O)C(C)(Cc2ccccc2Cl)SC1=O (configuration not stated) | < 3.00 | > 1000 µM | 1000 µM (≈ 269 µg/mL) | < 3.00 | < 3.00 | < 3.00 | < 3.00
CCCCCCCCCC1(C)SC(O)=C(C)C1=O (configuration not stated) | < 3.00 | 100 µM (≈ 27 µg/mL) | 500 µM (≈ 135 µg/mL) | < 3.00 | < 4.00 | < 4.00 | < 3.00
CCCCC(CC)CC1(C)SC(O)=C(C)C1=O (configuration not stated) | < 3.00 | > 1000 µM | 1000 µM (≈ 256 µg/mL) | < 3.00 | < 3.00 | < 3.00 | < 3.00
C=C/C(C)=C/[C@@]1(C)SC(=O)C(C)=C1O [THIOLACTOMYCIN] | 5.22 | 6 µM (≈ 1.26 µg/mL) | 62.5 µM (≈ 13.1 µg/mL) | 4.92 |  |  | 
CCCCCCCCCCCCCCCC1(C)SC(O)=C(C)C1=O (configuration not stated) |  |  | 500 µM (≈ 177 µg/mL) |  |  |  | 
CCCCCCCCCCCCCCCCCCCCC1(C)SC(O)=C(C)C1=O (configuration not stated) |  |  | > 1000 µM |  |  |  | 
CCCCCCCCCCCCCCCCC1(C)SC(O)=C(C)C1=O (configuration not stated) |  |  | > 1000 µM |  |  |  | 

Reference: ChEMBL document CHEMBL1148604 (J Med Chem, 2006)
